Data on 17 compounds can be found in ChEMBL document CHEMBL5727399, “Ectonucleotidase inhibitors and methods of use thereof” (2019).

The target of the assay is 5'-nucleotidase (Homo sapiens, UniProt P21589). As to the kind of experiment: The concentration of inorganic phosphate was determined using a phosphate standard curve.

Several values for one entry are separate records, joined by “and”; a condition that tells them apart may be missing. Equal values may be shown once. Some results are limits rather than exact numbers.

Sequence of 5'-nucleotidase (P21589 whole entry): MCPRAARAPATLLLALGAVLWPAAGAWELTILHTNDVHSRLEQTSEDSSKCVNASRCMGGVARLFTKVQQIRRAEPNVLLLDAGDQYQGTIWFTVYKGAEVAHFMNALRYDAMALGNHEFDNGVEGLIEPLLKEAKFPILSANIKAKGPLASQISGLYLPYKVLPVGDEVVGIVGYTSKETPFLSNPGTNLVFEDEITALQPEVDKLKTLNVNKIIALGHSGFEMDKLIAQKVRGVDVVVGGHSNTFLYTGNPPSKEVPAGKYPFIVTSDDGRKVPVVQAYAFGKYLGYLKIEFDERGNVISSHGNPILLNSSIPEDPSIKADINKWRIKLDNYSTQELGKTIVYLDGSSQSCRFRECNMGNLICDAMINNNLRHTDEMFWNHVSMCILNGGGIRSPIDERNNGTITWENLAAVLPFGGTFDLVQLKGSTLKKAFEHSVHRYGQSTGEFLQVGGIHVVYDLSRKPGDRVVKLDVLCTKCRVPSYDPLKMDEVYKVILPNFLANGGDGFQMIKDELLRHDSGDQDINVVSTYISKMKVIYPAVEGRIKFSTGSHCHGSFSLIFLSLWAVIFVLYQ

On to `O=C(O)C(OC[C@H]1O[C@@H](n2cnc3c(NCc4ccccc4)nc(Cl)nc32)[C@@H](F)[C@@H]1O)C(=O)O`, for which the IC50 was 8780 nM.
For `Nc1nc(Cl)nc2c1ncn2[C@@H]1O[C@H](COC(Cc2cnc(C(=O)O)s2)(C(=O)O)C(=O)O)[C@@H](O)[C@@H]1F`, the IC50 was found to be 602 nM.
With `N#Cc1ccc(CC(OC[C@H]2O[C@@H](n3cnc4c(N)nc(Cl)nc43)[C@@H](F)[C@@H]2O)(C(=O)O)C(=O)O)cc1F` the figure was 887 nM.
With `Nc1nc(Cl)nc2c1ncn2[C@@H]1O[C@H](COC(Cc2ccc(-c3ccccc3)cc2)(C(=O)O)C(=O)O)[C@@H](O)[C@@H]1F` the figure was 29 nM; with `N#Cc1cccc(CC(OC[C@H]2O[C@@H](n3cnc4c(N)nc(N=[N+]=[N-])nc43)[C@@H](F)[C@@H]2O)(C(=O)O)C(=O)O)c1`, 1280 nM.
With `Nc1nc(Cl)nc2c1ncn2[C@H]1C[C@H](O)[C@@H](COC(C(=O)O)C(=O)O)O1` the figure was greater than 50000 nM; with `CCOC(=O)C(Cc1ccc(OC(F)(F)F)cc1)(OC[C@H]1O[C@@H](n2cnc3c(N)nc(Cl)nc32)[C@@H](F)[C@@H]1O)C(=O)O` (some centres not stated), 718 nM; with `Nc1nc(Cl)nc2c1ncn2[C@@H]1O[C@H](COC(CCCCO)(C(=O)O)C(=O)O)[C@@H](O)[C@@H]1F`, 1890 nM.
`CNC(=O)C(OC[C@H]1O[C@@H](n2cnc3c(N)nc(Cl)nc32)[C@@H](F)[C@@H]1O)P(=O)(O)O` (some centres not stated): the IC50 came to 12000 nM.
With `Nc1nc(Cl)nc2c1ncn2[C@@H]1O[C@H](COC(CC(=O)O)(C(=O)O)C(=O)O)[C@@H](O)[C@@H]1F`, inhibition was half-maximal at 2560 nM (IC50).
The compound `[N-]=[N+]=N[C@H]1[C@@H](O)[C@H](n2cnc3c(N)nc(Cl)nc32)O[C@@H]1COC(C(=O)O)C(=O)O` registered an IC50 greater than 50000 nM.
For `Nc1nc(Cl)nc2c1ncn2[C@@H]1O[C@H](COC(CC(=O)O)C(=O)O)[C@@H](O)[C@@H]1F` (some centres not stated), the IC50 is greater than 50000 nM.
For `N#CCC(OC[C@H]1O[C@@H](n2cnc3c(N)nc(Cl)nc32)[C@@H](F)[C@@H]1O)(C(=O)O)C(=O)O`, the IC50 turned out to be 1510 nM.
Consider `CCOC(=O)C(OC[C@H]1O[C@@H](n2cnc3c(N)nc(Cl)nc32)[C@@H](F)[C@@H]1O)P(=O)(O)O` (single isomer, unassigned), for which the IC50 was 2790 nM and 8910 nM.
With `COC(=O)C(Cc1ccc(-c2ccccc2)cc1)(OC[C@H]1O[C@@H](n2cnc3c(N)nc(Cl)nc32)[C@@H](F)[C@@H]1O)C(=O)O` (single isomer, unassigned), the IC50 was 2860 nM and 3430 nM.
With `CCOC(=O)C(Cc1ccc(-c2ccccc2)cc1)(OC[C@H]1O[C@@H](n2cnc3c(N)nc(Cl)nc32)[C@@H](F)[C@@H]1O)C(=O)O` (single isomer, unassigned) the figure was 7260 nM and 8260 nM.
Turning to `CCOC(=O)C(OC[C@H]1O[C@@H](n2cnc3c(NC(=O)OC(C)(C)C)nc(Cl)nc32)[C@@H](F)[C@@H]1O)P(=O)(O)O` (single isomer, unassigned), the IC50 is 2470 nM and 2950 nM.
